# In PMC6193737, “Ligand binding properties of two Brugia malayi fatty acid and retinol (FAR) binding proteins and their vaccine efficacies against challenge infection in gerbils” (PLoS Neglected Tropical Diseases, 2018):
# Tests used:
# Format in all cases: binding
# rOv-FAR-2 = target: T1, rOv-FAR-2 (Onchocerca volvulus, UniProt C7DRP3); experiment: fluorescence emission enhancement; settings: PBS pH 7.2
# T1 construct: recombinant from E. coli, produced by procedures similar to rBm-FAR-2 (His tag, IMAC, signal peptide removed)
# T1 sequence (C7DRP3 entry or part of it): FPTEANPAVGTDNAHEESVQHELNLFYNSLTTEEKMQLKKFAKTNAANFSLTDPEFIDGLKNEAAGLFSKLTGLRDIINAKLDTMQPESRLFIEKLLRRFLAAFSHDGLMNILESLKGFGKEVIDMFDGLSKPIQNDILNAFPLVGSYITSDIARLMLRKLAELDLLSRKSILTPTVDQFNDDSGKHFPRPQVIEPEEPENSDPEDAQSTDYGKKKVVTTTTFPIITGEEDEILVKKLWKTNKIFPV
# rBm-FAR-1 [1] = target: T2, rBm-FAR-1 (Brugia malayi, UniProt A0A0K0J905); experiment: fluorescence emission enhancement; settings: PBS pH 7.2
# T2 construct: gene bma-far-1; signal peptide removed; C-terminal 6His tag; secreted from Pichia (PichiaPink strain 4, pPinkalpha-HC, codon optimised); IMAC; ~19 kDa
# T2 sequence (A0A0K0J905 entry or part of it): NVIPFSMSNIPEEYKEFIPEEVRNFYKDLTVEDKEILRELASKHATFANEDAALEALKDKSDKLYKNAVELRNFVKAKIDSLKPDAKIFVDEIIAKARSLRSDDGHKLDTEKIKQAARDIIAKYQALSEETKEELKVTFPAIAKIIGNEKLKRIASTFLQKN
# rOv-FAR-1 [2] = target: T3, rOv-FAR-1 (Onchocerca volvulus, UniProt Q25619); experiment: fluorescence emission enhancement; settings: PBS pH 7.2
# T3 construct: recombinant from E. coli, produced by procedures similar to rBm-FAR-2 (His tag, IMAC, signal peptide removed)
# T3 sequence (Q25619 17-178): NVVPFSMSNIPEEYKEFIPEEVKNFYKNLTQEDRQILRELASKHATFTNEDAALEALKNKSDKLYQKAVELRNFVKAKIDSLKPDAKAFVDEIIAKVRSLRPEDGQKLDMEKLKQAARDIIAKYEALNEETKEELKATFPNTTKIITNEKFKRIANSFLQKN
# rOv-FAR-1 [3] = target: T3, rOv-FAR-1; experiment: fluorescence emission enhancement and blue shift; settings: PBS pH 7.2; DAUDA ~1 uM; excitation 345 nm; fluorophore-tagged fatty acid
# rBm-FAR-1 [4] = target: T2, rBm-FAR-1; experiment: fluorescence emission enhancement and blue shift; settings: PBS pH 7.2; DAUDA ~1 uM; excitation 345 nm; fluorophore-tagged fatty acid
# [5] = retinol ~4 uM, excitation 350 nm
smiles,measurement,setting,value
CC\C=C/C=C/C=C/C=C\CCCCCCCC(=O)O [cis-parinaric acid],fluorescence emission enhancement,"rOv-FAR-2; cPnA ~4 uM, excitation 319 nm","both FAR-1s and FAR-2s bind a natural, intrinsically fluorescent, fatty acid acid (cPnA)"
same,fluorescence emission enhancement,"rBm-FAR-1 [1]; cPnA ~4 uM, excitation 319 nm",Both rBm-FAR-1 and rBm-FAR-2 bound cPnA
same,fluorescence emission enhancement,"rOv-FAR-1 [2]; cPnA ~4 uM, excitation 319 nm","both FAR-1s and FAR-2s bind a natural, intrinsically fluorescent, fatty acid acid (cPnA)"
"CN(C)c1cccc2c(S(=O)(=O)NCCCCCCCCCCC(=O)O)cccc12 [DAUDA, 11-((5-dimethylaminonaphthalene-1-sulfonyl)amino)undecanoic]",fluorescence emission enhancement and blue shift,rOv-FAR-1 [3],"FAR-1s bind DAUDA, yielding similarly substantial increases and blue shift"
same,fluorescence emission enhancement and blue shift,rBm-FAR-1 [4],rBm-FAR-1 produced a large increase in DAUDA emission and a substantial blue-shift
CC1=C(/C=C/C(C)=C/C=C/C(C)=C/CO)C(C)(C)CCC1 [all-trans retinol],fluorescence emission enhancement,rOv-FAR-2; [5],the proteins from both parasites bind retinol
same,fluorescence emission enhancement,rBm-FAR-1 [1]; [5],Addition of retinol to either rBm-FAR-1 or rBm-FAR-2 resulted in substantial increases in fluorescence emission
same,fluorescence emission enhancement,rOv-FAR-1 [2]; [5],the proteins from both parasites bind retinol
